Data set [1] relates to epichaperomes. The data set can be described thus: In vivo target-drug unbinding kinetics taken from Phase 2 tumor pharmacokinetics. Also on record: species or system mouse. As for the experimental part: (§1) Figure 1 Biodistribution of zelavespib in MDA-MB-468 tumor-bearing mice. (a) Biodistribution of [^124I]-Zelavespib in MDA-MB-468 tumors, organs, tissues, and plasma as per ref. [32]. Data are presented as means ± s.d., five mice per time point. Curves for blood, lung, heart, muscle, bone, and brain were fitted using a one-phase decay equation, and kinetics of zelavespib clearance were determined. Tumor curve was fitted to a two-phase exponential decay. k, kfast, and kslow are the rate constants. Half-life (T1/2) is computed as ln(2)/k. […] (b) Illustrative schematic showing the distinct binding kinetics of zelavespib to epichaperomes (slow off-rate) and to chaperone assemblies (fast off-rate). The tumor pharmacokinetics profile recorded in the Phase 2 interval may represent a direct reflection of the in vivo kinetics of target–drug unbinding. koff, kinetic rate constant for dissociation of an epichaperome-zelavespib assembly. Rt, retention time. […]

Data set [2] relates to epichaperomes. The data set can be described thus: Epichaperome determination by native PAGE / SDS-PAGE immunoblotting of MDA-MB-468 tumors. The class given is in vivo, mouse. As to the method:
For epichaperome analysis, tumors were cut into small pieces and homogenized in native lysis buffer (20 mM HEPES pH 7.5, 50 mM KCl, 5 mM MgCl2, 0.01% NP40, 20 mM Na2MoO4) containing protease and phosphatase inhibitors using BioMasher® II Micro Tissue Homogenizers (VWR, Radnor, PA, USA). Samples were left on ice for 30 min and then subjected to native PAGE analysis. Protein concentrations were determined using the BCA kit (Pierce, Waltham, MA, USA) according to the manufacturer’s instructions. Protein lysate (10–60 µg) was loaded onto 5.5% native gel and resolved at 4 °C, transferred to nitrocellulose membrane, and probed with the indicated primary antibodies: HSP90α (AB2928; RRID:AB_303423; 1:8000) from Abcam (Cambridge, UK), HOP (ADI-SRA-1500; RRID:AB_10618972; 1:1000) from Enzo and CDC37 (4793S; RRID:AB_10695539; 1:1000) from Cell Signaling (Danvers, MA, USA). Membranes were then incubated with a 1:5000 dilution of a peroxidase-conjugated corresponding secondary antibody. Detection was performed using the ECL Enhanced Chemiluminescence Detection System (Pierce™ ECL Western Blotting Substrate) according to the manufacturer’s instructions.
In cellular studies, it has been proposed that zelavespib, upon binding, becomes trapped inside the epichaperome assemblies, leading to the disassembly of epichaperomes into individual components. However, this biochemical mechanism’s impact on the residence time of zelavespib at the site of action remains poorly understood in vivo. To investigate this, we analyzed the epichaperome target in tumors at 30 h and 72 h post-zelavespib administration using non-denaturing electrophoresis (native PAGE) (Figure 4a–c).
Figure 4 Epichaperome modulation by zelavespib in MDA-MB-468 tumor-bearing mice. (a) native-PAGE (top) or SDS-PAGE (bottom) followed by immunoblotting of epichaperome components (i.e., constituent chaperones and co-chaperones) in MDA-MB-468 tumors. Tumor-bearing mice were injected with a single dose of 50 mg/kg zelavespib, and tumor analysis was performed after sacrificing the mice at 30 h and 72 h post-zelavespib administration (n = 5 mice per time-point). Gels, representative tumors. To account for tumor heterogeneity (i.e., MDA-MB-468 are aggressive tumors with highly proliferative periphery adjacent to areas of necrosis), several cuts from the same tumor were analyzed when tumor size permitted. β-actin and GAPDH, protein loading controls; black arrowhead, biochemical signature of folding HSP90 pools as detected by native PAGE separation and immunoblotting; red arrowhead, non-specific signal, LE, low exposure; HE, high exposure. (b) Graph, data are presented as means ± s.e.m., n = 7, one-way ANOVA with Dunnett’s post hoc of tumors as in a. Because HSP90 in epichaperomes was not well separated from the folding HSP90 pool, we performed epichaperome quantification using CDC37 in epichaperomes as a surrogate marker. (c) Cartoon showing the proposed biochemical mechanism in vivo. Initially, zelavespib becomes trapped when epichaperomes bound, a mechanism that results in epichaperome disassembly, with no change in the expression level of epichaperome constituents. We propose that the initial trapping stage of epichaperomes is a main contributing factor to the extended on-target residence time observed for this agent in clinical settings. Zelavespib’s residence time in tumors seems to be dictated by target disassembly kinetics rather than by frank drug–target unbinding kinetics.
(In western blotting, separated proteins are transferred to a membrane and probed.)

Data set [3] relates to chaperone assemblies. Kind of data set: Kinetics of chaperone-zelavespib assembly taken from Phase 1 clearance. As to conditions: in vivo, fast off-rate. Set-up: species or system mouse. As to the method:
as §1

Details of data set [4]: method as in PMID 28808818. The conditions noted are these: human patients, no dependency on dose level; cited from earlier work.

For the compound `CC(C)NCCCn1c(Sc2cc3c(cc2I)OCO3)nc2c(N)ncnc21` [zelavespib], in data set [1] (epichaperome-zelavespib assembly), the “Rt = 1/koff (retention time)” value was 67.56 h. The “koff, dissociation of epichaperome-zelavespib assembly” value in data set [1] (taken as k of tumor Phase 2) is 4.11e-06 s⁻¹. The “total chaperone levels on SDS-PAGE” value in data set [2] (30 h post single 50 mg/kg) was “no corresponding alteration”. Moreover, the “increase in epichaperome signal on native PAGE compared to baseline” value in data set [2] (30 h post single 50 mg/kg, CDC37 in epichaperomes as surrogate marker) is approximately 2.29 fold. Further, in data set [2] (72 h post single 50 mg/kg), the “decrease of epichaperome levels compared to baseline” value is recorded as “approximately 1.8 fold” and the “total chaperone levels on SDS-PAGE” value was “no observable change”. The “decrease in epichaperome signal on native PAGE compared to 30 h” value in data set [2] (72 h post single 50 mg/kg, CDC37 in epichaperomes as surrogate marker) was “approximately 4.15 fold”. The “baseline epichaperome target remaining in tumors” value in data set [2] (72 h post-zelavespib administration) is on record as “approximately 24.09%”. In addition, in data set [3], the “T1/2, chaperone-zelavespib assembly” value was ~ 3 h and the “k Phase 1, chaperone-zelavespib assembly” value is on record as ~ 0.2 h^-1. Also, in data set [4], the “mean terminal half-life (T1/2) in the plasma” value was 8.4 ± 3.6 h.

These data come from publication PMC10604720, “Unraveling the Mechanism of Epichaperome Modulation by Zelavespib: Biochemical Insights on Target Occupancy and Extended Residence Time at the Site of Action” (Biomedicines, 2023).
